Results from patent publication US10683278B2 (JINAN UNIVERSITY, priority 2015, dated 2020).

How the values were obtained:
[1] = target: T1, FLT-3 kinase domain recombinant protein (Homo sapiens, UniProt P36888); experiment: Inhibition rate on FLT3 kinase (ELISA); format: biochemical; conditions: two values per compound; for inhibition at 0.01 µM / inhibition at 0.1 µM / inhibition at 1 µM: read-out: Inhibition rate (%) against receptor tyrosine kinase FLT-3
T1 construct: 50 μL FLT-3 kinase domain recombinant protein diluted with reaction buffer to initiate the reaction
T1 sequence (P36888 610-943 limits assumed): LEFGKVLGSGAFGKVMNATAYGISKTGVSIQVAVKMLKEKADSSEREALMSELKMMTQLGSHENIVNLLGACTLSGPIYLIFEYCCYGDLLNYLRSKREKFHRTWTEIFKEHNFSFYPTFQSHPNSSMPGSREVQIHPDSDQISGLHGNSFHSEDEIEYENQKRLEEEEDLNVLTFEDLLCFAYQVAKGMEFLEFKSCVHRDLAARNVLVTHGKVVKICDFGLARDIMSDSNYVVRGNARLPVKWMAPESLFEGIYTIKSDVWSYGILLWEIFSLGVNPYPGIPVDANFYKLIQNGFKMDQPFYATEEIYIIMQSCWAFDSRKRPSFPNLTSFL
Protocol: Conventional enzyme-linked immunosorbent assay (ELISA) method is used, and the specific steps are as follows
12,000 g of compounds were centrifuged for 5 min, DMSO was added to make a 10^−2M stock solution, vortexed uniformly and sonicated for 10 min for standby application, and stored at −40° C. The compounds were diluted from the stock solution with DMSO to 100 times the concentration to be tested (concentration of DMSO in the system being 1%) during the test.
1. The enzyme reaction substrate Poly (Glu, Tyr) 4:1 was diluted to 20 μg/mL with potassium-free PBS (10 mM sodium phosphate buffer, 150 mM NaCl, pH 7.2-7.4), the ELISA plate was coated with same in 125 μL/well, and reacted at 37° C. for 12-16 hours, the liquid in wells was discarded, the plate was washed three times, for 5 minutes each time, with T-PBS (potassium-free PBS with 0.1% Tween-20, 200 μL/well), and the ELISA plate was dried in an oven at 37° C. for 1-2 hours.
2. To each well were added 49 μL of ATP solution diluted with reaction buffer (50 mM HEPES pH 7.4, 50 mM MgCl2, 0.5 mM MnCl2, 0.2 mM Na3VO4, 1 mM DTT), 1 μL of compounds to be tested, and 50 μL FLT-3 kinase domain recombinant protein diluted with reaction buffer to initiate the reaction (two ATP-free control wells are required for each experiment). Subject to a shaker (100 rpm) at 37° C. and reacted for 1 hour. The liquid in wells was discarded, and the plate was washed three times with T-PBS.
(§1) 3. Antibody PY99 diluent (the antibody was diluted in 1:500 with T-PBS which contains 5 mg/mL BSA) was added in 100 μL/well, subjected same to a shaker at 37° C. and reacted for 0.5 hour. The liquid in wells was discarded, and the plate was washed three times with T-PBS.
as §1, with “4. Horseradish peroxidase labeled goat anti-mouse secondary antibody” for “3. Antibody PY99”, “1:2000” for “1:500”, “mg/ml” for “mg/mL”
5. 2 mg/ml of OPD developing solution (diluted with 0.1 M citric acid-sodium citrate buffer which contains 0.03% H2O2 (pH=5.4)) was added in 100 μL/well, and reacted at 25° C. in the dark for 1-10 minutes.
6. 2 M H2SO4 was added in 50 μL/well to stop the reaction, and the reading from the wavelength-adjustable microwell plate ELIASA VERSAmax was performed with a wavelength of 490 nm.

[2] = target: T2, AXL kinase (Homo sapiens, UniProt P30530); experiment: IC50 test on AXL kinase (Z′-LYTE FRET kinase activity detection); format: biochemical; conditions: for IC50: Z′-LYTE FRET peptide assay, 1 h reaction; for inhibitory activity on AXL kinase: competitive experiment with ATP, in words
T2 construct: purchased Invitrogen PV4803
T2 sequence (P30530 26-894): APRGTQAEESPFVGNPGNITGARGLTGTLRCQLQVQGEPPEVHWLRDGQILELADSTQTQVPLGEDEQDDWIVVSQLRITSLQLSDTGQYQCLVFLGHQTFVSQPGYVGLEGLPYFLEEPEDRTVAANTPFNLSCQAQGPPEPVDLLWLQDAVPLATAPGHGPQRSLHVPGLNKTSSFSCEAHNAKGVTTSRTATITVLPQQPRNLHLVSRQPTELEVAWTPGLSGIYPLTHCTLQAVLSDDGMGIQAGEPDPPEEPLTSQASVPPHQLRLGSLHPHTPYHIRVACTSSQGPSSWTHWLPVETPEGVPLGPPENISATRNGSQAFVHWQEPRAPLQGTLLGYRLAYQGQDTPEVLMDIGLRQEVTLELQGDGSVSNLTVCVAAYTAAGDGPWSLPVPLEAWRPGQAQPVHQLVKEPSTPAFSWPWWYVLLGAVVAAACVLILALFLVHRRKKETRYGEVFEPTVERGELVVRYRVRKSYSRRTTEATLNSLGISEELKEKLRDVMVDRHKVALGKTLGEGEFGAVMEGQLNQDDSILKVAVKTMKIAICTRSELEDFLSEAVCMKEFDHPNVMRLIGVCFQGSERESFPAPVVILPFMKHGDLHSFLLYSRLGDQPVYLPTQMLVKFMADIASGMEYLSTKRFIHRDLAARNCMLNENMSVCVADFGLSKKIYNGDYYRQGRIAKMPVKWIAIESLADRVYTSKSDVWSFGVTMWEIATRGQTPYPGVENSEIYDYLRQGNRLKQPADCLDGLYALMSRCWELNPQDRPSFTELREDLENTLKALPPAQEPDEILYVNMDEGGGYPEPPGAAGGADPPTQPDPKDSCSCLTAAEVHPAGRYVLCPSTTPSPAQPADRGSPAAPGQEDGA
From the text: Kinase activity detection: The activity of compounds on kinases was detected by a secondary reaction which used the Z′-LYTE™ technique (a detection using fluorescence, enzyme coupling, and based on differences in susceptibility of phosphorylated and non-phosphorylated polypeptides to proteolytic cleavage), followed the fluorescence resonance energy transfer (FRET) principle, and used Z′-LYTE™ FRET peptide substrates (Invitrogen, Z′-LYTE™ KINASE ASSAY KIT—TYR 2 PEPTIDE, PV3191). AXL kinase (invitrogen, PV4803) was diluted stepwise, FRET peptide was then added, followed by ATP, then by compounds at different concentrations, reacted for 1 h, site-specific proteases were then added to recognize and cleave non-phosphorylated FRET peptides, reacted for 1 h, and […] at 445 nm and 520 nm were detected using excitation wavelength of 400 nm.

Molecule | Inhibition rate (%) against receptor tyrosine kinase FLT-3 ([1]; compound 10 nM, 0.01 µM) [%] | inhibition at 0.01 µM ([1]; compound 10 nM) [%] | Inhibition rate (%) against receptor tyrosine kinase FLT-3 ([1]; compound 100 nM, 0.1 µM) [%] | inhibition at 0.1 µM ([1]; compound 100 nM) [%] | Inhibition rate (%) against receptor tyrosine kinase FLT-3 ([1]; compound 1000 nM, 1 µM) [%] | inhibition at 1 µM ([1]; compound 1000 nM) [%] | IC50 [2] [nM] | inhibitory activity on AXL kinase [2]
CCc1ccc2c(c1)c(=O)c(C(=O)Nc1ccc(Oc3ncnc4[nH]cc(-c5ccc(OC)cc5)c34)c(F)c1)c(C)n2C [GDL5000037, 6-ethyl-N-(3-fluoro-4-(5-(4-methoxyphenyl)-7H-pyrrolo[2,3-d]pyrimidin-4-yloxy)phenyl)-1,2-dimethyl-4-oxo-1,4-dihydroquinoline-3-carboxamide] | 59.8 | 65.3 | 66.5 | 74.3 | 91.6 | 100 | 16 | strong inhibitory activity
Cc1c(C(=O)Nc2ccc(Oc3ncnc4[nH]cc(-c5ccccc5)c34)c(F)c2)c(=O)c2cc(C(C)C)ccc2n1C [TL50172, N-(3-fluoro-4-(5-phenyl-7H-pyrrolo[2,3-d]pyrimidin-4-yloxy)phenyl)-6-isopropyl-1,2-dimethyl-4-oxo-1,4-dihydroquinoline-3-carboxamide] | 54.2 | 59.4 | 72.9 | 62.6 | 84.6 | 81.8 | 26 | –
CCc1ccc2c(c1)c(=O)c(C(=O)Nc1ccc(Oc3ccnc(N)c3Cl)c(F)c1)c(C)n2C [GDL5000059, N-(4-((2-amino-3-chloropyridin-4-yl)oxy)-3-fluorophenyl)-6-ethyl-1,2-dimethyl-4-oxo-1,4-dihydroquinoline-3-carboxamide] | 52.7 | 55.9 | 63.8 | 67.8 | 82.3 | 88.7 | 72 | –
COc1cc2ncnc(Oc3ccc(NC(=O)c4cn5c6c(cc(C)cc6c4=O)CCC5)cc3F)c2cc1OC [TL4830032, N-(4-((6,7-dimethoxyquinazolin-4-yl)oxy)-3-fluorophenyl)-9-methyl-1-oxo-1,5,6,7-tetrahydropyrido[3,2,1-ij]quinoline-2-carboxamide] | 62.8 | 63.8 | 56.6 | 69.8 | 68.5 | 72 | 26.5 | –
CCc1ccc2c(c1)c(=O)c(C(=O)Nc1ccc(Oc3ncnc4[nH]cc(-c5ccccc5)c34)c(F)c1)c(CC)n2C [TL4830005, 2,6-diethyl-N-(3-fluoro-4-(5-phenyl-7H-pyrrolo[2,3-d]pyrimidin-4-yloxy)phenyl)-1-methyl-4-oxo-1,4-dihydroquinoline-3-carboxamide] | 49.8 | 55.7 | 53.3 | 50.1 | 59.9 | 71.4 | 23 | strong inhibitory activity
Cc1c(C(=O)Nc2ccc(Oc3ncnc4[nH]cc(-c5ccccc5)c34)c(F)c2)c(=O)c2cc(F)ccc2n1C [TL50087, 6-fluoro-N-(3-fluoro-4-(5-phenyl-7H-pyrrolo[2,3-d]pyrimidin-4-yloxy)phenyl)-1,2-dimethyl-4-oxo-1,4-hydroquinoline-3-carboxamide] | 41.8 | 46.1 | 45.8 | 47.4 | 67.2 | 84 | > 10000 | –
6-ethyl-N-(3-fluoro-4-(3-phenylfuro[2,3-b]pyridin-4-yloxy)phenyl)-1,2-dimethyl-4-oxo-1,4-dihydroquinoline-3-carboxamide [GDL5000039] | – | – | – | – | – | – | 192 | –
Cc1ccc2c(c1)c(=O)c(C(=O)Nc1ccc(Oc3ncnc4[nH]cc(-c5ccccc5)c34)c(F)c1)cn2C [TL4800167, N-(3-fluoro-4-(5-phenyl-7H-pyrrolo[2,3-d]pyrimidin-4-yloxy)phenyl)-1,6-dimethyl-4-oxo-1,4-dihydroquinoline-3-carboxamide] | – | – | – | – | – | – | 152 | –
Cc1c(C(=O)Nc2ccc(Oc3ncnc4[nH]cc(-c5ccccc5)c34)c(F)c2)c(=O)c2cc(Cl)ccc2n1C [TL50053, 6-chloro-N-(3-fluoro-4-((5-phenyl-7H-pyrrolo[2,3-d]pyrimidin-4-yl)oxy)phenyl)-1,2-dimethyl-4-oxo-1,4-dihydroquinoline-3-carboxamide] | – | – | – | – | – | – | 1890 | –
CCN1CCN(c2cc3c(cc2F)c(=O)c(C(=O)Nc2ccc(Oc4ncnc5cc(OC)c(OC)cc45)c(F)c2)cn3C2CC2)CC1 [GDL5000093, 1-cyclopropyl-N-(4-(6,7-dimethoxyquinazolin-4-yloxy)-3-fluorophenyl)-7-(4-ethylpiperazin-1-yl)-6-fluoro-4-oxo-1,4-dihydroquinoline-3-carboxamide] | – | – | – | – | – | – | 277 | –
CCn1c(C)c(C(=O)Nc2ccc(Oc3ncnc4[nH]cc(-c5ccccc5)c34)c(F)c2)c(=O)c2cc(C)ccc21 [TL4800067, 1-ethyl-N-(3-fluoro-4-(5-phenyl-7H-pyrrolo[2,3-d]pyrimidin-4-yloxy)phenyl)-2,6-dimethyl-4-oxo-1,4-dihydroquinoline-3-carboxamide] | – | – | – | – | – | – | 146 | –
